“Also recorded” adds a separate entry of the source. Like-named read-outs stand apart in the source and are kept apart here. One block for each compound: values may come before it.
What was measured:
[1] = Preliminary solubility study of Pomalidomide Form O in a range of solvents; type: physicochemical; settings: for solubility: thermodynamic from solid
Procedure: A preliminary study of the solubility of Pomalidomide Form O was performed in a range of solvents and under the operating conditions given in the following table 5: […]

[2] = 37° C., cited from earlier work
[3] = pH 1.2, 4.5 and 6.8, cited from earlier work
[4] = cited from earlier work
[5] = Moisture stability test of Form M (RH 100%, XRPD); type: physicochemical; settings: 100% relative humidity, one night, room temperature
Procedure: Pomalidomide Form M was subjected to a moisture stability test. 100 mg of Pomalidomide Form M, prepared as described above, were maintained for one night at 100% relative humidity (RH 100%), at room temperature and analyzed by XRPD.

[6] = Relative stability of crystal forms from preparation tests by suspension in solvent; type: physicochemical; settings: suspension in solvent (slurrying) tests
Procedure: The crystal form of Pomalidomide, named Form M, can be prepared by suspension of the form O under stirring for a night in isopropanol (slurrying) after seeding with Form B.
An alternative method for the preparation of Form M prescribes suspending the form O under stirring for four days (slurrying) in dioxane and seeding with Form A, as described in the present experimental part.
1 g of Pomalidomide Form O prepared as in Example 1, was suspended in 20 ml of isopropanol, seeded with crystals of Pomalidomide Form B and stirred overnight at room temperature, giving after filtration and drying, the new Pomalidomide Form M as crystalline powder.

- solubility in AcOiBu ([1]; RT): >80 vol RT;
- solubility in Anisole ([1]; RT): >80 vol. RT;
- solubility in CHCl3 ([1]; RT): >80 vol. RT;
- solubility in DMF ([1]; RT): 26 vol.
- solubility in DMSO ([1]; RT): 6 vol.
- solubility in Dioxane ([1]; RT): >80 vol. RT
- solubility in Et2O ([1]; RT): >80 vol. RT;
- solubility in MIBK ([1]; RT): >80 vol. RT;
- solubility in MeNO2 ([1]; RT): >80 vol. RT;
- solubility in NMP ([1]; RT): 8 vol.
- solubility ([1]; ethanol, organic solvent or mixture, RT, read-out: solubility in EtOH): < 1000 µg/mL
- solubility in AcOiBu ([1]; reflux): >80 vol.
- solubility in Anisole ([1]; reflux): >80 vol.
- solubility in CHCl3 ([1]; reflux): >80 vol.
- solubility in Dioxane ([1]; reflux): <80 vol.
- solubility in Et2O ([1]; reflux): >80 vol.
- solubility in MIBK ([1]; reflux): >80 vol.
- solubility in MeNO2 ([1]; reflux): <80 vol. reflux
- solubility ([1]; water, RT, read-out: solubility in H2O): < 1000 µg/mL
Compound: Nc1cccc2c1C(=O)N(C1CCC(=O)NC1=O)C2=O (racemic) [Pomalidomide Form O]

Compound: Nc1cccc2c1C(=O)N(C1CCC(=O)NC1=O)C2=O (racemic) [Pomalidomide, (R,S)-4-Amino-2-(2,6-dioxo-3-piperidinyl)-isoindol-1,3-dione]
- Pomalidomide solubility after 24 hours ([2]; pH 1.2 (0.05N HCl)): 15.0 µg/mL
- Pomalidomide solubility after 24 hours ([2]; pH 4.5 (0.05M acetato)): 14.6 µg/mL
- Pomalidomide solubility after 24 hours ([2]; pH 6.8 (0.05M fosfato)): 13.2 µg/mL
- solubility of dose in 250 ml of aqueous medium ([3]; clinical dose of 4 mg): is not
- solubility of dose in 250 ml of aqueous medium ([3]; dose of 2 mg): soluble
- solubility in organic solvents ([4]; absolute ethanol, ethyl acetate, heptane, methanol, 2-propanol, toluene): very slightly soluble
- solubility in organic solvents ([4]; acetone, acetonitrile, methylene chloride, methyl ethyl ketone, THF): slightly soluble

Compound: Nc1cccc2c1C(=O)N(C1CCC(=O)NC1=O)C2=O (stereo not shown) [Pomalidomide Form M]
- hygroscopicity / water take-up [5]: did not take-up any water; also recorded: non-hygroscopic
- relative stability of crystal form [6]: higher stability than both Form B and Form O

Reference: patent US10155740B2 (F.I.S.—FABBRICA ITALIANA SINTETICI S.P.A., priority 2016, dated 2018)
